These results are taken from patent publication US8455475B2 (Gruenenthal GmbH, priority 2009, dated 2013).

Experiment [1] has as its target T1, human B1R (bradykinin receptor 1) (Homo sapiens, UniProt P46663).
T1 construct: expressed in transfected cells; host or cells: CHO K1 cells
T1 sequence (P46663 1-353): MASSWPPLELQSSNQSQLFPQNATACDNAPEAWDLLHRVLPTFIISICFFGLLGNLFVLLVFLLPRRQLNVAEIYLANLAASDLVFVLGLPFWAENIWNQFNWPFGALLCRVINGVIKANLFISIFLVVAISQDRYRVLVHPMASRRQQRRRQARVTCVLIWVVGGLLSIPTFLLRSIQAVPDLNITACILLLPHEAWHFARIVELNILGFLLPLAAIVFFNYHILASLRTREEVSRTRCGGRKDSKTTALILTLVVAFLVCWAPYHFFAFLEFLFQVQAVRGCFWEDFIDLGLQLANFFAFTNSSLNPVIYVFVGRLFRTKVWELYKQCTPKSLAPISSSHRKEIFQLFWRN
As to the kind of experiment: FLIPR Ca2+ assay (Fluo-4) on CHO K1 cells stably transfected with the human B1R gene (hB1R cells): % inhibition at 10 μM / IC50, agonist Lys-Des-Arg9-bradykinin. The experiment is classed as cell-based. The settings on record: CHO-K1, human B1R. Summed up: (§1)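 Stable CHO K1 lines, Fluo-4 dye, probenecid-containing buffer. Cpd 10 μM or dose range, 10–20 min, then EC80 agonist (h: Lys-Des-Arg9-BK; r: Des-Arg9-BK). Readout peak FC; % inhibition vs max; IC50 from n=2–3, N≥2.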

Experiment [2] has as its target T2, rat B1R (bradykinin receptor 1) (Rattus norvegicus, UniProt P97583).
T2 construct: expressed in transfected cells; host or cells: CHO K1 cells
T2 sequence (P97583 1-337): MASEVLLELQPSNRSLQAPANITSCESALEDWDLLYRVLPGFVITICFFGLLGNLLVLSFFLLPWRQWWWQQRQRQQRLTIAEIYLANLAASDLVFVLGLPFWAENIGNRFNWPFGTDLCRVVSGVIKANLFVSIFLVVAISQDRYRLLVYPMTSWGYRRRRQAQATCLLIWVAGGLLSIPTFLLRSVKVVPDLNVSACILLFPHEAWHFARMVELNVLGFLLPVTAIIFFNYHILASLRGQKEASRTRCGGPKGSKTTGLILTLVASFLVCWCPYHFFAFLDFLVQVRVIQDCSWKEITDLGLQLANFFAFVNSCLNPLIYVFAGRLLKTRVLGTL
As to the kind of experiment: FLIPR Ca2+ assay (Fluo-4) on CHO K1 cells stably transfected with the B1R gene of the rat (rB1R cells): % inhibition at 10 μM / IC50, agonist Des-Arg9-bradykinin. It counts as cell-based. The settings on record: CHO-K1, rat B1R. The method, boiled down: as §1

With `O=C(N[C@@H]1CCCc2ccc(C(=O)N3CC4(CCN(c5ccncc5)CC4)C3)cc21)c1ccccc1Cl` [Example H-71, 2-Chloro-N-[(1R)-7-(7-pyridin-4-yl-2,7-diazaspiro[3.5]nonane-2-carbonyl)-1,2,3,4-tetrahydro-naphthalen-1-yl]-benzamide], the inhibition at 10 µM in experiment [1] came to 100%; in experiment [2] it was 103%.

With `CN(C(=O)c1ccccc1Cl)C1CCc2ccc(C(=O)N3CCC4(CCN(Cc5ccncc5)CC4)CC3)cc21` (centres unmarked) [Ind_CC-109, 2-chloro-N-methyl-N-[6-[9-(pyridin-4-yl-methyl)-3,9-diazaspiro[5.5]undecane-3-carbonyl]-2,3-dihydro-1H-inden-1-yl]-benzamide], the inhibition at 10 µM in experiment [1] is 33%; in experiment [2], 29%.

In the case of `O=C(NC1CCc2ccc(C(=O)N3CCC4(CC3)CCN(c3ccncc3)CC4)cc21)c1sccc1Cl` (centres unmarked) [Ind_CC-004, 3-chloro-N-[6-(9-pyridin-4-yl-3,9-diazaspiro[5.5]undecane-3-carbonyl)-2,3-dihydro-1H-inden-1-yl]-thiophene-2-carboxylic acid amide], the inhibition at 10 µM in experiment [1] is 99%; in experiment [2], 98%.

For the compound `O=C(N[C@@H]1CCc2ccc(C(=O)N3CCC4(CC3)CCN(c3ccncc3)CC4)cc21)c1c(Cl)cccc1C(F)(F)F` [Example H-85, 2-Chloro-N-[(1R)-6-(9-pyridin-4-yl-3,9-diazaspiro[5.5]undecane-3-carbonyl]-2,3-dihydro-1H-inden-1-yl]-6-(trilfuoromethyl)-benzamide], the inhibition at 10 µM is 100% in experiment [1] and 103% in experiment [2].

Take `O=C(NC1CCc2ccc(C(=O)N3CCC4(CC3)CCN(c3ccncc3)CC4)cc21)c1ccccn1` (centres unmarked) [Ind_CC-002, N-[6-(9-pyridin-4-yl-3,9-diazaspiro[5.5]undecane-3-carbonyl)-2,3-dihydro-1H-inden-1-yl]-pyridine-2-carboxylic acid amide]: the inhibition at 10 µM in experiment [1] is 97%; in experiment [2], 85%.

For the compound `Cc1cccc(C)c1C(=O)NC1CCc2ccc(C(=O)N3CCC4(CC3)CCN(c3ccc(C(F)(F)F)cc3)CC4)cc21` (centres unmarked) [IND_CC-307, 2,6-Dimethyl-N-[6-[9-[4-(trifluoromethyl)-phenyl]-3,9-diazaspiro[5.5]undecane-3-carbonyl]-2,3-dihydro-1H-inden-1-yl]-benzamide], the inhibition at 10 µM came to 14% in experiment [1] and 103% in experiment [2].

On to `CC1(C)CC(NC(=O)c2ccc(Cl)s2)c2cc(C(=O)N3CCC4(CC3)CCN(c3ccncc3)CC4)ccc21` (centres unmarked) [Ind_CC-054, 5-chloro-N-[3,3-dimethyl-6-(9-pyridin-4-yl-3,9-diazaspiro[5.5]undecane-3-carbonyl)-1,2-dihydro-inden-1-yl]-thiophene-2-carboxylic acid amide], for which the inhibition at 10 µM was 96% in experiment [1] and 102% in experiment [2].

For the compound `O=C(N[C@@H]1CCc2ccc(C(=O)N3CC4(CCN(c5ccncc5)CC4)C3)cc21)c1ccccc1Cl` [Example H-27, 2-chloro-N-[(1R)-6-(7-pyridin-4-yl-2,7-diazaspiro[3.5]nonane-2-carbonyl)-2,3-dihydro-1H-inden-1-yl]-benzamide], the inhibition at 10 µM in experiment [1] came to 100%; in experiment [2] it was 102%.

Take `COc1cc(C)c(S(=O)(=O)N[C@@H]2CCCc3ccc(C(=O)N4CCC5(CCN(c6ccncc6)CC5)C4)cc32)c(C)c1` [Example H-16, 4-methoxy-2,6-dimehtyl-N-[(1R)-7-(8-pyridin-4-yl-3,8-diazaspiro[4.5]decane-3-carbonyl)-1,2,3,4-tetrahydro-naphthalen-1-yl]-benzenesulfonic acid amide]: the results for the inhibition at 10 µM in experiment [1] and in experiment [2] were 100% and 102%, respectively.

On to `O=C(N[C@@H]1CCOc2cc(C(F)(F)F)c(C(=O)N3CCC4(CCN(c5ccncc5)CC4)C3)cc21)c1ccccc1Cl` [Example H-107, 2-Chloro-N-[(4R)-6-(8-pyridin-4-yl-3,8-diazaspiro[4.5]decane-3-carbonyl)-7-(trifluoromethyl)-3,4-dihydro-2H-chromen-4-yl]-benzamide], for which the values for the inhibition at 10 µM in experiment [1] and in experiment [2] were 72% and 108%, respectively.

For `O=C(c1cccc2c1CC[C@@H]2N1Cc2cccc(Cl)c2C1=O)N1CCC2(CCN(c3ccncc3)CC2)C1` [Example H-168, 7-Chloro-2-[(1S)-4-(8-pyridin-4-yl-3,8-diazaspiro[4.5]decane-3-carbonyl)-2,3-dihydro-1H-inden-1-yl]-2,3-dihydro-isoindol-1-one], the values for the inhibition at 10 µM in experiment [1] and in experiment [2] were 96% and 55%, respectively.

On to `CN(C(=O)c1ccc(F)cc1Cl)C1CCc2ccc(C(=O)N3CCC4(CC3)CCN(c3ccncc3)CC4)cc21` (centres unmarked) [IND_CC-261, 2-Chloro-4-fluoro-N-methyl-N-[6-(9-pyridin-4-yl-3,9-diazaspiro[5.5]undecane-3-carbonyl)-2,3-dihydro-1H-inden-1-yl]-benzamide], for which the inhibition at 10 µM in experiment [1] worked out at 100%; in experiment [2] it was 103%.

On to `O=C(NC1CCc2ccc(C(=O)N3CCC4(CCN(c5ccncc5)CC4)C3)cc21)c1ccccc1Cl` (centres unmarked) [Ind_CC-100, 2-chloro-N-[6-(8-pyridin-4-yl-2,8-diazaspiro[4.5]decane-2-carbonyl)-2,3-dihydro-1H-inden-1-yl]-benzamide], for which the inhibition at 10 µM came out at 100% in experiment [1] and 104% in experiment [2].

As for `CN(C(=O)c1cc(F)ccc1Cl)C1CCc2ccc(C(=O)N3CCC4(CC3)CCN(c3ccncc3)CC4)cc21` (centres unmarked) [IND_CC-203, 2-Chloro-5-fluoro-N-methyl-N-[6-(9-pyridin-4-yl-3,9-diazaspiro[5.5]undecane-3-carbonyl)-2,3-dihydro-1H-inden-1-yl]-benzamide], the inhibition at 10 µM is 99% in experiment [1] and 103% in experiment [2].

On to `O=C(N[C@H]1CCCc2ccc(C(=O)N3CCC4(CC3)CCN(c3ccncc3)CC4)cc21)c1ccccc1Cl` [Example H-10, 2-chloro-N-[(1S)-7-(9-pyridin-4-yl-3,9-diazaspiro[5.5]undecane-3-carbonyl)-1,2,3,4-tetrahydro-naphthalen-1-yl]-benzamide], for which the figures for the inhibition at 10 µM in experiment [1] and in experiment [2] were 49% and 103%, respectively.

For `CN(C(=O)c1cc(Cl)ccc1C(F)(F)F)C1CCc2ccc(C(=O)N3CCC4(CC3)CCN(c3ccncc3)CC4)cc21` (centres unmarked) [IND_CC-301, 5-Chloro-N-methyl-N-[6-(9-pyridin-4-yl-3,9-diazaspiro[5.5]undecane-3-carbonyl)-2,3-dihydro-1H-inden-1-yl]-2-(trifluoromethyl)-benzamide], the inhibition at 10 µM in experiment [1] was 94%; in experiment [2], 107%.

As to `O=C(NC1CCc2ccc(C(=O)N3CCC4(CCN(Cc5ccncc5)CC4)CC3)cc21)c1sccc1Cl` (centres unmarked) [Ind_CC-104, 3-chloro-N-[6-[9-(pyridin-4-yl-methyl)-3,9-diazaspiro[5.5]undecane-3-carbonyl]-2,3-dihydro-1H-inden-1-yl]-thiophene-2-carboxylic acid amide], the figures for the inhibition at 10 µM in experiment [1] and in experiment [2] were 33% and 102%, respectively.

With `O=C(NC1CCc2ccc(C(=O)N3CCC4(CC3)CCN(c3ccncc3)CC4)cc21)c1ccccc1Cl` (centres unmarked) [IND_CC-273, 2-Chloro-N-[6-(9-pyridin-4-yl-3,9-diazaspiro[5.5]undecane-3-carbonyl)-2,3-dihydro-1H-inden-1-yl]-benzamide], the figures for the inhibition at 10 µM in experiment [1] and in experiment [2] were 99% and 106%, respectively.

On to `COc1cc(C)c(C(=O)NC2CCc3ccc(C(=O)N4CCC5(CC4)CCN(c4cccnc4)CC5)cc32)c(C)c1` (centres unmarked) [Ind_CC-090, 4-methoxy-2,6-dimethyl-N-[6-(9-pyridin-3-yl-3,9-diazaspiro[5.5]undecane-3-carbonyl)-2,3-dihydro-1H-inden-1-yl]-benzamide], for which the inhibition at 10 µM was found to be 42% in experiment [1] and 100% in experiment [2].

With `O=C(Cc1ccccc1Cl)N[C@@H]1CCc2ccc(C(=O)N3CCC4(CCN(c5ccncc5)CC4)C3)cc21` [Example H-151, 2-(2-Chlorophenyl)-N-[(1R)-6-(8-pyridin-4-yl-3,8-diazaspiro[4.5]decane-3-carbonyl)-2,3-dihydro-1H-inden-1-yl]-acetamide], the results for the inhibition at 10 µM in experiment [1] and in experiment [2] were 99% and 103%, respectively.

Take `O=C(NC1CCc2ccc(C(=O)N3CCC4(CC3)CCN(c3ccc(F)cc3)CC4)cc21)c1sccc1Cl` (centres unmarked) [Ind_CC-103, 3-chloro-N-[6-[9-(4-fluorophenyl)-3,9-diazaspiro[5.5]undecane-3-carbonyl]-2,3-dihydro-1H-inden-1-yl]-thiophene-2-carboxylic acid amide]: the inhibition at 10 µM came out at 93% in experiment [1] and 62% in experiment [2].

With `O=C(NC1CCc2ccc(C(=O)N3CCC4(CC3)CCN(c3ccncc3)C4)cc21)c1ccccc1Cl` (centres unmarked) [Ind_CC-101, 2-chloro-N-[6-(2-pyridin-4-yl-2,8-diazaspiro[4.5]decane-8-carbonyl)-2,3-dihydro-1H-inden-1-yl]-benzamide], the figures for the inhibition at 10 µM in experiment [1] and in experiment [2] were 100% and 102%, respectively.

What is called inhibition is the relative decrease from the control value, in per cent.
